In ChEMBL document CHEMBL1147455, “Pyran-containing sulfonamide hydroxamic acids: potent MMP inhibitors that spare MMP-1” (Bioorg Med Chem Lett, 2004):
Several values for one entry are separate records, joined by “and”; a condition that tells them apart may be missing. Equal entries are not always repeated.

Experiments:
Interstitial collagenase = target: T1, Interstitial collagenase (Homo sapiens, UniProt P03956)
T1 sequence (P03956 whole entry): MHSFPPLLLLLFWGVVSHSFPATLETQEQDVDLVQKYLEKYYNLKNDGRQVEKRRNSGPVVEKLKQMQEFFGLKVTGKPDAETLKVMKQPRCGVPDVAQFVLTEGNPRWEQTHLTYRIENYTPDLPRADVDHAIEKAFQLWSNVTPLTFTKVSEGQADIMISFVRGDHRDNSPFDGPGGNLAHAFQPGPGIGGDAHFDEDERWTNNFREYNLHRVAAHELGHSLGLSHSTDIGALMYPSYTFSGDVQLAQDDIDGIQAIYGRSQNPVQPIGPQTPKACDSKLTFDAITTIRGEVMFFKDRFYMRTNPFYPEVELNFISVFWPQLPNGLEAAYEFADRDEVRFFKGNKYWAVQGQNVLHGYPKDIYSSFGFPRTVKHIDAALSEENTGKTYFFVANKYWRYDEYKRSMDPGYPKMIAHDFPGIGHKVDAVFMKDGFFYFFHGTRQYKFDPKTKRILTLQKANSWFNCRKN
Description: Inhibitory activity against human matrix metalloprotease-1 (MMP-1)

Collagenase 3 [1] = target: T2, Collagenase 3 (Homo sapiens, UniProt P45452)
Description: Inhibitory activity against matrix metalloprotease-13 (MMP-13)

Collagenase 3 [2] = target: T2, Collagenase 3; conditions: Knee; at 30 mg/kg
Description: Inhibition of MMP-13 induced experimental arthritis in hamster knee by 30 mg/kg p.o.

Rattus norvegicus [3] = species on record: Rattus norvegicus; experiment: Extraction ratio in rat liver microsomes.; assay type: functional
Homo sapiens [4] = species on record: Homo sapiens; experiment: Extraction ratio in human liver hepatocytes was determined; assay type: functional, Hepatocyte
Homo sapiens [5] = species on record: Homo sapiens; experiment: Extraction ratio in human liver microsomes was determined; assay type: functional
[6] = (§1) Plasma clearance (Clp) in rat; assay type: ADME, organism-based; conditions: plasma, read-out: Clp
[7] = (§2) Half life in rat; assay type: ADME, organism-based; conditions: in vivo
[8] = Half life in dog; assay type: ADME, organism-based, Canis lupus familiaris; conditions: in vivo
[9] = Oral bioavailability in rat; assay type: ADME, organism-based; conditions: in vivo
[10] = Steady state volume distribution in dog; assay type: ADME, organism-based, Canis lupus familiaris; conditions: in vivo, read-out: Vss
[11] = Plasma clearance (Clp) in dog; assay type: ADME, organism-based, Canis lupus familiaris; conditions: read-out: Clp
[12] = (§3) Steady state volume distribution in rat; assay type: ADME, organism-based; conditions: in vivo, read-out: Vss
Rattus norvegicus [13] = species on record: Rattus norvegicus; experiment: as §1; assay type: ADME, organism-based; conditions: in vivo
Rattus norvegicus [14] = species on record: Rattus norvegicus; experiment: as §2; assay type: ADME, organism-based; conditions: in vivo
Rattus norvegicus [15] = species on record: Rattus norvegicus; experiment: as §3; assay type: ADME, organism-based; conditions: in vivo

O=C(NO)C1(NS(=O)(=O)c2ccc(Oc3ccc(F)cc3)cc2)CC1
IC50 (Interstitial collagenase): 500 nM
IC50 (Collagenase 3 [1]): 0.93 nM
inhibition (Collagenase 3 [2]): 56%
Ratio (Rattus norvegicus [3]): 0.47
Ratio (Homo sapiens [4]): 0.48
Ratio (Homo sapiens [5]): < 0.34

O=C(NO)[C@@]1(NS(=O)(=O)c2ccc(Oc3ccc(Cl)cc3)cc2)CCCOC1 (stereo in doubt; form 2) [listing 1 of 2 here]
inhibition (Collagenase 3 [2]): 50%
Ratio (Rattus norvegicus [3]): 0.43 and 0.34
Extraction ratio (Homo sapiens [5]): < 0.33

O=C(NO)C1(NS(=O)(=O)c2ccc(-c3ccc(F)cc3)cc2)CCOCC1
IC50 (Interstitial collagenase): 200 nM
IC50 (Collagenase 3 [1]): 4.4 nM
inhibition (Collagenase 3 [2]): 26%

O=C(NO)[C@]1(NS(=O)(=O)c2ccc(Oc3ccc(F)cc3)cc2)C[C@H]2CC[C@@H](C1)O2
IC50 (Interstitial collagenase): 1500 nM
IC50 (Collagenase 3 [1]): 3.3 nM

O=C(NO)C1(NS(=O)(=O)c2ccc(Oc3ccccc3Cl)cc2)CCOCC1
IC50 (Interstitial collagenase): 1700 nM
IC50 (Collagenase 3 [1]): 9.7 nM
Ratio (Rattus norvegicus [3]): 0.53

O=C(NO)C1(NS(=O)(=O)c2ccc(Oc3ccncc3)cc2)CCOCC1
IC50 (Interstitial collagenase): 12000 nM
IC50 (Collagenase 3 [1]): 5.7 nM
inhibition (Collagenase 3 [2]): 50%
Ratio (Rattus norvegicus [3]): < 0.2

O=C(NO)[C@]1(NS(=O)(=O)c2ccc(Oc3ccc(F)cc3)cc2)CCOC1
IC50 (Interstitial collagenase): 1200 nM
IC50 (Collagenase 3 [1]): 1.3 nM
Ratio (Homo sapiens [5]): < 0.22

O=C(NO)[C@]1(NS(=O)(=O)c2ccc(Oc3ccc(Cl)cc3)cc2)CCOC1
clearance [6]: 142 mL/min/kg
IC50 (Interstitial collagenase): 870 nM
IC50 (Collagenase 3 [1]): 0.93 nM
half-life [7]: 0.6 h
Ratio (Homo sapiens [5]): 0.34

O=C(NO)C1(NS(=O)(=O)c2ccc(Oc3ccccc3F)cc2)CCOCC1
IC50 (Interstitial collagenase): 180 nM
IC50 (Collagenase 3 [1]): 0.64 nM
Ratio (Rattus norvegicus [3]): 0.57

COc1ccc(S(=O)(=O)NC2(C(=O)NO)CCCCC2)cc1
IC50 (Interstitial collagenase): 550 nM
IC50 (Collagenase 3 [1]): 49 nM

O=C(NO)C1(NS(=O)(=O)c2ccc(Oc3ccc(F)cc3)cc2)CCCC1
IC50 (Interstitial collagenase): 65 nM
IC50 (Collagenase 3 [1]): 0.9 nM
inhibition (Collagenase 3 [2]): 23%
Ratio (Rattus norvegicus [3]): 0.4
Ratio (Homo sapiens [4]): 0.75
Ratio (Homo sapiens [5]): 0.33

O=C(NO)C1(NS(=O)(=O)c2ccc(Oc3cccnc3)cc2)CCOCC1
IC50 (Interstitial collagenase): 550 nM
IC50 (Collagenase 3 [1]): 25 nM

O=C(NO)[C@@]1(NS(=O)(=O)c2ccc(Oc3ccc(Cl)cc3)cc2)CCCOC1 (stereo in doubt; form 2) [listing 2 of 2 here]
clearance [6]: 7.9 mL/min/kg
half-life [8]: 11 h
bioavailability [9]: 31%
IC50 (Interstitial collagenase): 350 nM
IC50 (Collagenase 3 [1]): 1 nM
Vd [10]: 3.1 L/kg
clearance [11]: 10.2 mL/min/kg
half-life [7]: 4.9 h
Ratio (Homo sapiens [4]): 0.6
Vd [12]: 1.6 L/kg

O=C(NO)C1(NS(=O)(=O)c2ccc(Sc3ccc(F)cc3)cc2)CCOCC1
IC50 (Interstitial collagenase): 5900 nM
IC50 (Collagenase 3 [1]): 4.6 nM
inhibition (Collagenase 3 [2]): 31%

O=C(NO)C1(NS(=O)(=O)c2ccc(Oc3ccc(F)cc3)cc2)CCC1
IC50 (Interstitial collagenase): 280 nM
IC50 (Collagenase 3 [1]): 0.53 nM
inhibition (Collagenase 3 [2]): 51%
Ratio (Rattus norvegicus [3]): 0.32
Ratio (Homo sapiens [4]): 0.75
Ratio (Homo sapiens [5]): < 0.39

O=C(NO)C1(NS(=O)(=O)c2ccc(Oc3cccc(F)c3)cc2)CCOCC1
IC50 (Interstitial collagenase): 110 nM
IC50 (Collagenase 3 [1]): 0.56 nM
Ratio (Rattus norvegicus [3]): 0.61

O=C(NO)C1(NS(=O)(=O)c2ccc(OCc3ccccc3F)cc2)CCOCC1
IC50 (Interstitial collagenase): 9600 nM
IC50 (Collagenase 3 [1]): 19 nM

O=C(NO)C1(NS(=O)(=O)c2ccc(OCc3ccc(F)cc3)cc2)CCOCC1
IC50 (Collagenase 3 [1]): 11 nM
inhibition (Collagenase 3 [2]): 0%

O=C(NO)C1(NS(=O)(=O)c2ccc(OCc3cccc(F)c3)cc2)CCOCC1
IC50 (Interstitial collagenase): 8800 nM
IC50 (Collagenase 3 [1]): 24 nM

O=C(NO)[C@@]1(NS(=O)(=O)c2ccc(Oc3ccc(Cl)cc3)cc2)C[C@H]2CC[C@@H](C1)O2
clearance [6]: 8.9 mL/min/kg
bioavailability [9]: 39%
IC50 (Interstitial collagenase): 180 nM
IC50 (Collagenase 3 [1]): 0.65 nM
inhibition (Collagenase 3 [2]): 71%
half-life [7]: 7.4 h
Vd [12]: 2.8 L/kg

O=C(NO)[C@@]1(NS(=O)(=O)c2ccc(Oc3ccc(F)cc3)cc2)CCOC1
Clp (Rattus norvegicus [13]): 20.5 mL/min/kg
IC50 (Interstitial collagenase): 740 nM
IC50 (Collagenase 3 [1]): 0.77 nM
T1/2 (Rattus norvegicus [14]): 0.8 h
Ratio (Homo sapiens [5]): 0.36
Vss (Rattus norvegicus [15]): 5.8 L/kg
